According to patent US20160214974A1 (SYNGENTA PARTICIPATIONS AG, priority 2013, published 2016):
Read-outs that look alike come from different tables or passages of the source.

Tests used:
[1] = system: Q-biotype strain of Bemisia tabaci (Neonicotinoid resistant); test: Control of neonicotinoid and pyrethroid resistant tobacco whitefly (Example B4 b); assay type: in vivo; conditions: 72 h, read-out: control of the Q-biotype (Neonicotinoid resistant) strain of Bemisia tabaci
[2] = system: Bemisia tabaci (Cotton White Fly); test: Activity against Bemisia tabaci, cotton leaf discs sprayed (Example B3); assay type: in vivo; conditions: foliar, 144 h, read-out: control of Bemisia tabaci (mortality)
Description: Activity Against Bemisia tabaci (Cotton White Fly)
Cotton leaf discs were placed on agar in a 24-well microtiter plate and sprayed with test solutions at an application rate of 200 ppm. After drying, the leaf discs were infested with 12 to 18 adults. After an incubation period of 6 days after infestation, samples were checked for mortality.

[3] = system: Myzus persicae (Green Peach Aphid); test: Activity against Myzus persicae, sunflower leaf discs sprayed (Example B1); assay type: in vivo; conditions: foliar, 144 h, read-out: control of Myzus persicae (mortality)
Description: (§1) Activity Against Myzus persicae (Green Peach Aphid)
Sunflower leaf discs were placed on agar in a 24-well microtiter plate and sprayed with the test solutions at an application rate of 200 ppm. After drying, the leaf discs were infested with an aphid population of mixed ages. After an incubation period of 6 days, samples were checked for mortality.

[4] = system: Myzus persicae (Green Peach Aphid); test: Activity against Myzus persicae, pea seedlings with roots in test solution (Example B2); assay type: in vivo; conditions: 144 h, read-out: control of Myzus persicae (mortality)
Text: as §1
Pea seedlings, infested with an aphid population of mixed ages, were placed with the roots directly in the test solutions at an application rate of 24 ppm. 6 days after introduction, samples were checked for mortality.

[5] = cotton leaf discs sprayed at 200 ppm, adults, 6 days
[6] = sunflower leaf discs sprayed at 200 ppm, mixed age aphids, 6 days

Structure (SMILES)	mortality at 200 ppm [2] [%]	mortality at 200 ppm [3] [%]	mortality at 200 ppm [3, 6] [%]	pest or weed control at 200 ppm ([1]; 200 ppm) [%]	mortality at 24 ppm [4] [%]	also measured
N#Cc1cncc([C@]2(C(N)=S)C[C@H]3CC[C@@H](C2)N3CC(F)(F)F)c1 [E.009, (1S,5R)-3-(5-cyano-3-pyridyl)-8-(2,2,2-trifluoroethyl)-8-azabicyclo[3.2.1]octane-3-carbothioamide]	≥ 80	≥ 80				pest or weed control at 200 ppm [1]: ≥ 80%
NC(=S)[C@@]1(c2cncc(I)c2)C[C@H]2C=C[C@@H](C1)N2CC(F)(F)F [E.060, (1R,5S)-3-(5-iodo-3-pyridyl)-8-(2,2,2-trifluoroethyl)-8-azabicyclo[3.2.1]oct-6-ene-3-carbothioamide]			≥ 80			mortality at 200 ppm [2, 5]: ≥ 80%
C#Cc1cncc([C@]2(C(N)=S)C[C@H]3C=C[C@@H](C2)N3CC(F)(F)F)c1 [E.070, (1R,5S)-3-(5-ethynyl-3-pyridyl)-8-(2,2,2-trifluoroethyl)-8-azabicyclo[3.2.1]oct-6-ene-3-carbothioamide]			≥ 80			
C=C(Cl)CN1[C@@H]2C=C[C@H]1C[C@](C(N)=S)(c1cncc(Br)c1)C2 [E.013, (1R,5S)-3-(5-bromo-3-pyridyl)-8-(2-chloroallyl)-8-azabicyclo[3.2.1]oct-6-ene-3-carbothioamide]	≥ 80	≥ 80		≥ 80		
NC(=S)[C@@]1(c2cncc(Cl)c2)C[C@H]2C=C[C@@H](C1)N2CC(F)F [E.001, (1R,5S)-3-(5-chloro-3-pyridyl)-8-(2,2-difluoroethyl)-8-azabicyclo[3.2.1]oct-6-ene-3-carbothioamide]	≥ 80	≥ 80		≥ 80	≥ 80	
N#C/N=C1\SCCN1Cc1ccc(Cl)nc1 [Thiacloprid, reference compound]						pest or weed control at 200 ppm [1]: < 80%
NC(=S)[C@@]1(c2cncc(Cl)c2)C[C@H]2CC[C@@H](C1)N2CC(F)(F)F [E.002, (1S,5R)-3-(5-chloro-3-pyridyl)-8-(2,2,2-trifluoroethyl)-8-azabicyclo[3.2.1]octane-3-carbothioamide]	≥ 80	≥ 80				pest or weed control at 200 ppm [1]: ≥ 80%
NC(=S)[C@@]1(c2cncc(I)c2)C[C@H]2C=C[C@@H](C1)N2CC(F)F [E.039, (1 S,5R)-8-(2,2-difluoroethyl)-3-(5-iodo-3-pyridyl)-8-azabicyclo[3.2.1]oct-6-ene-3-carbothioamide]	≥ 80	≥ 80		≥ 80	≥ 80	
CC(C)(C)OC(=O)N1[C@@H]2CC[C@H]1C[C@](C(N)=S)(c1cncc(Br)c1)C2						melting point: 228 to 230 °C
NC(=S)[C@@]1(c2cncc(I)c2)C[C@H]2C=C[C@@H](C1)N2 [E.034, (1S,5R)-3-(5-iodo-3-pyridyl)-8-azabicyclo[3.2.1]oct-6-ene-3-carbothioamide]			≥ 80			mortality at 200 ppm [2, 5]: ≥ 80%
NC(=S)[C@@]1(c2cncc(Br)c2)C[C@H]2CC[C@@H](C1)N2CC(F)(F)F [E.007, (1S,5R)-3-(5-bromo-3-pyridyl)-8-(2,2,2-trifluoroethyl)-8-azabicyclo[3.2.1]octane-3-carbothioamide]	≥ 80	≥ 80				
NC(=S)[C@@]1(c2cncc(Br)c2)C[C@H]2C=C[C@@H](C1)N2 [E.015, (1S,5R)-3-(5-bromo-3-pyridyl)-8-azabicyclo[3.2.1]oct-6-ene-3-carbothioamide]			≥ 80			mortality at 200 ppm [2, 5]: ≥ 80%
O=[N+]([O-])NC1=NCCN1Cc1ccc(Cl)nc1 [Imidacloprid, reference compound]						pest or weed control at 200 ppm [1]: < 80%
NC(=S)[C@@]1(c2cncc(I)c2)C[C@H]2CC[C@@H](C1)N2CC(F)F [E.072, (1 S,5R)-8-(2,2-difluoroethyl)-3-(5-iodo-3-pyridyl)-8-azabicyclo[3.2.1]octane-3-carbothioamide]	≥ 80	≥ 80			≥ 80	pest or weed control at 200 ppm [1]: ≥ 80%
C=C(Cl)CN1[C@@H]2CC[C@H]1C[C@](C(N)=S)(c1cncc(Br)c1)C2 [E.006, (1S,5R)-3-(5-bromo-3-pyridyl)-8-(2-chloroallyl)-8-azabicyclo[3.2.1]octane-3-carbothioamide]	≥ 80	≥ 80			≥ 80	pest or weed control at 200 ppm [1]: ≥ 80%
NC(=S)[C@@]1(c2cncc(Br)c2)C[C@H]2C=C[C@@H](C1)N2CCCC(F)(F)F [E.008, (1R,5S)-3-(5-bromo-3-pyridyl)-8-(4,4,4-trifluorobutyl)-8-azabicyclo[3.2.1]oct-6-ene-3-carbothioamide]	≥ 80	≥ 80		≥ 80	≥ 80	
C=C(Cl)CN1[C@@H]2C=C[C@H]1C[C@](C(N)=S)(c1cncc(C#N)c1)C2 [E.012, (1 S,5R)-8-(2-chloroallyl)-3-(5-cyano-3-pyridyl)-8-azabicyclo[3.2.1]oct-6-ene-3-carbothioamide]				≥ 80	≥ 80	
C=CCN1[C@@H]2C=C[C@H]1C[C@](C(N)=S)(c1cncc(I)c1)C2 [E.063, (1R,5S)-8-allyl-3-(5-iodo-3-pyridyl)-8-azabicyclo[3.2.1]oct-6-ene-3-carbothioamide]	≥ 80	≥ 80		≥ 80	≥ 80	
NC(=S)[C@@]1(c2cncc(F)c2)C[C@H]2C=C[C@@H](C1)N2CC(F)F [E.071, (1R,5S)-8-(2,2-difluoroethyl)-3-(5-fluoro-3-pyridyl)-8-azabicyclo[3.2.1]oct-6-ene-3-carbothioamide]	≥ 80	≥ 80		≥ 80	≥ 80	
NC(=S)[C@@]1(c2cncc(Br)c2)C[C@H]2CC[C@@H](C1)N2 [E.010, (1R,5S)-3-(5-bromo-3-pyridyl)-8-azabicyclo[3.2.1]octane-3-carbothioamide]			≥ 80			mortality at 200 ppm [2, 5]: ≥ 80%; mortality at 24 ppm ([4]; pea seedlings, roots in test solution at 24 ppm, 6 days): ≥ 80%
NC(=S)[C@@]1(c2cncc(C3CC3)c2)C[C@H]2CC[C@@H](C1)N2CC(F)(F)F [E.023]			≥ 80			
C[Si](C)(C)C#Cc1cncc([C@]2(C(N)=S)C[C@H]3C=C[C@@H](C2)N3CC(F)(F)F)c1 [E.068, (1R,5S)-8-(2,2,2-trifluoroethyl)-3-[5-(2-trimethylsilylethynyl)-3-pyridyl]-8-azabicyclo[3.2.1]oct-6-ene-3-carbothioamide]			≥ 80			
